Species on record: Rattus norvegicus
Experiment: DrugMatrix - Regimen: Daily Repeat
Format: toxicity, organism-based, Sprague-Dawley
Parameters: regimen Daily Repeat, gender Male, age 6-8 weeks
Details: in vivo, sc, route subcutaneous, […]; for BASOPHIL / EOSINOPHIL / ERYTHROCYTE COUNT / HEMATOCRIT / HEMOGLOBIN / LEUKOCYTE COUNT / LYMPHOCYTE / MEAN CORPUSCULAR HEMOGLOBIN / MEAN CORPUSCULAR HEMOGLOBIN CONCENTRATION / MEAN CORPUSCULAR VOLUME / MONOCYTE / NEUTROPHIL / PLATELET COUNT: tissue Blood; for ALANINE AMINOTRANSFERASE / ALBUMIN / ALKALINE PHOSPHATASE / ASPARTATE AMINOTRANSFERASE / BLOOD UREA NITROGEN / CARBON DIOXIDE / CHLORIDE / CHOLESTEROL / CREATININE / GLUCOSE / LACTATE DEHYDROGENASE / LIPASE / PHOSPHORUS / POTASSIUM / TOTAL BILIRUBIN / TOTAL PROTEIN / URIC ACID: tissue Plasma
[1] = 4 mg/kg, 72 h, dose level Low, time 3 day
[2] = 4 mg/kg, 120 h, dose level Low, time 5 day
[3] = 36 mg/kg, 72 h, dose level High, time 3 day
[4] = 36 mg/kg, 120 h, dose level High, time 5 day

In the case of Nc1c2ccccc2nc2ccccc12 [AMINACRINE], the BASOPHIL [1] is reported as 0%, the EOSINOPHIL [1] is reported as 0.67% and the “ERYTHROCYTE COUNT” value [1] is reported as 6.9 x10E6/uL. For the same compound, the HEMATOCRIT [1] was 42.07%, the HEMOGLOBIN [1] was 14.07 G/DL and the “LEUKOCYTE COUNT” value [1] was 11.4 x10E3/uL. The LYMPHOCYTE [1] was 65.33%, the “MEAN CORPUSCULAR HEMOGLOBIN” value [1] was 20.43 pg and the “MEAN CORPUSCULAR HEMOGLOBIN CONCENTRATION” value [1] was 33.4 G/DL. The “MEAN CORPUSCULAR VOLUME” value [1] was 61.1 fL, the MONOCYTE [1] was 8.67% and the NEUTROPHIL [1] was 25.67%. The “PLATELET COUNT” value [1] was 1093.67 x10E3/uL, the “ALANINE AMINOTRANSFERASE” value [1] was 44 u/L and the ALBUMIN [1] was 3.9 G/DL. The “ALKALINE PHOSPHATASE” value [1] was 311.67 u/L, the “ASPARTATE AMINOTRANSFERASE” value [1] was 81 u/L and the “BLOOD UREA NITROGEN” value [1] was 14.67 mg/dL. For the same compound, the “CARBON DIOXIDE” value [1] was 22.33 mmol/L, the CHLORIDE [1] was 106 MEQ/L and the CHOLESTEROL [1] was 68.33 mg/dL. The CREATININE [1] was 0.3 mg/dL, the GLUCOSE [1] was 144.67 mg/dL and the “LACTATE DEHYDROGENASE” value [1] was 297.67 u/L. For the same compound, the LIPASE [1] was 8.67 u/L, the PHOSPHORUS [1] was 9.93 mg/dL and the POTASSIUM [1] was 5.93 MEQ/L. The “TOTAL BILIRUBIN” value [1] was 0.1 mg/dL, the “TOTAL PROTEIN” value [1] was 6 G/DL and the “URIC ACID” value [1] was 0.93 mg/dL. The BASOPHIL [2] was 0.33%, the EOSINOPHIL [2] was 0% and the “ERYTHROCYTE COUNT” value [2] was 6.82 x10E6/uL. For the same compound, the HEMATOCRIT [2] was 42.2%, the HEMOGLOBIN [2] was 13.8 G/DL and the “LEUKOCYTE COUNT” value [2] was 13.23 x10E3/uL. The LYMPHOCYTE [2] was 62%, the “MEAN CORPUSCULAR HEMOGLOBIN” value [2] was 20.2 pg and the “MEAN CORPUSCULAR HEMOGLOBIN CONCENTRATION” value [2] was 32.67 G/DL. For the same compound, the “MEAN CORPUSCULAR VOLUME” value [2] was 61.87 fL, the MONOCYTE [2] was 3% and the NEUTROPHIL [2] was 34.33%. The “PLATELET COUNT” value [2] was 1028 x10E3/uL, the “ALANINE AMINOTRANSFERASE” value [2] was 47 u/L and the ALBUMIN [2] was 3.4 G/DL. The “ALKALINE PHOSPHATASE” value [2] was 316 u/L, the “ASPARTATE AMINOTRANSFERASE” value [2] was 78.33 u/L and the “BLOOD UREA NITROGEN” value [2] was 17.33 mg/dL. For the same compound, the “CARBON DIOXIDE” value [2] was 22.67 mmol/L, the CHLORIDE [2] was 100.33 MEQ/L and the CHOLESTEROL [2] was 66.33 mg/dL. The CREATININE [2] was 0.3 mg/dL, the GLUCOSE [2] was 141.67 mg/dL and the “LACTATE DEHYDROGENASE” value [2] was 188.67 u/L. It also gave an LIPASE [2] of 8 u/L, a PHOSPHORUS [2] of 9.9 mg/dL and a POTASSIUM [2] of 5.47 MEQ/L. For the same compound, the “TOTAL BILIRUBIN” value [2] was 0.1 mg/dL, the “TOTAL PROTEIN” value [2] was 6.13 G/DL and the “URIC ACID” value [2] was 0.9 mg/dL. The BASOPHIL [3] was 0.33%, the EOSINOPHIL [3] was 0.33% and the “ERYTHROCYTE COUNT” value [3] was 6.95 x10E6/uL. The HEMATOCRIT [3] was 42.07%, the HEMOGLOBIN [3] was 14.1 G/DL and the “LEUKOCYTE COUNT” value [3] was 8.8 x10E3/uL. The LYMPHOCYTE [3] was 76%, the “MEAN CORPUSCULAR HEMOGLOBIN” value [3] was 20.3 pg and the “MEAN CORPUSCULAR HEMOGLOBIN CONCENTRATION” value [3] was 33.47 G/DL. The “MEAN CORPUSCULAR VOLUME” value [3] was 60.57 fL, the MONOCYTE [3] was 3% and the NEUTROPHIL [3] was 20.33%. For the same compound, the “PLATELET COUNT” value [3] was 1177.67 x10E3/uL, the “ALANINE AMINOTRANSFERASE” value [3] was 44.33 u/L and the ALBUMIN [3] was 3.27 G/DL. The “ALKALINE PHOSPHATASE” value [3] was 226.33 u/L, the “ASPARTATE AMINOTRANSFERASE” value [3] was 101.67 u/L and the “BLOOD UREA NITROGEN” value [3] was 17 mg/dL. For the same compound, the “CARBON DIOXIDE” value [3] was 22 mmol/L, the CHLORIDE [3] was 106 MEQ/L and the CHOLESTEROL [3] was 62 mg/dL. The CREATININE [3] was 0.3 mg/dL, the GLUCOSE [3] was 151 mg/dL and the “LACTATE DEHYDROGENASE” value [3] was 142.33 u/L. For the same compound, the LIPASE [3] was 7.67 u/L, the PHOSPHORUS [3] was 9.3 mg/dL and the POTASSIUM [3] was 6 MEQ/L. For the same compound, the “TOTAL BILIRUBIN” value [3] was 0.1 mg/dL, the “TOTAL PROTEIN” value [3] was 6.07 G/DL and the “URIC ACID” value [3] was 1.17 mg/dL. The BASOPHIL [4] was 0%, the EOSINOPHIL [4] was 0% and the “ERYTHROCYTE COUNT” value [4] was 6.75 x10E6/uL. For the same compound, the HEMATOCRIT [4] was 41.37%, the HEMOGLOBIN [4] was 13.1 G/DL and the “LEUKOCYTE COUNT” value [4] was 11.17 x10E3/uL. The LYMPHOCYTE [4] was 59.67%, the “MEAN CORPUSCULAR HEMOGLOBIN” value [4] was 19.43 pg and the “MEAN CORPUSCULAR HEMOGLOBIN CONCENTRATION” value [4] was 31.73 G/DL. The “MEAN CORPUSCULAR VOLUME” value [4] was 61.3 fL, the MONOCYTE [4] was 4.33% and the NEUTROPHIL [4] was 35.67%. The “PLATELET COUNT” value [4] was 1310.67 x10E3/uL, the “ALANINE AMINOTRANSFERASE” value [4] was 40.67 u/L and the ALBUMIN [4] was 2.83 G/DL. For the same compound, the “ALKALINE PHOSPHATASE” value [4] was 304.33 u/L, the “ASPARTATE AMINOTRANSFERASE” value [4] was 111 u/L and the “BLOOD UREA NITROGEN” value [4] was 17.33 mg/dL. For the same compound, the “CARBON DIOXIDE” value [4] was 22 mmol/L, the CHLORIDE [4] was 101.67 MEQ/L and the CHOLESTEROL [4] was 48 mg/dL. The CREATININE [4] was 0.3 mg/dL, the GLUCOSE [4] was 157.67 mg/dL and the “LACTATE DEHYDROGENASE” value [4] was 113.33 u/L. It also gave an LIPASE [4] of 7 u/L, a PHOSPHORUS [4] of 9 mg/dL and a POTASSIUM [4] of 5.17 MEQ/L. For the same compound, the “TOTAL BILIRUBIN” value [4] was 0.1 mg/dL, the “TOTAL PROTEIN” value [4] was 5.5 G/DL and the “URIC ACID” value [4] was 0.97 mg/dL.
